Assay results reported in patent EP0501354B1, “Anticataract composition” (Senju Pharmaceutical Co., Ltd., priority 1991, dated 1992).

Legend:
[1] = Body weight during treatment of streptozotocin-diabetic rats; format: in vivo, male SD rats; settings: 100 mg/kg/day intraperitoneally once a day for 56 days; STZ-diabetic rats
Method: Streptozotocin (hereafter abbreviated as STZ), 70 mg/kg, was administered intravenously to 28 male SD rats aged 4 weeks to induce diabetes. Thereafter, the animals were divided into three groups (two groups consisting of 10 animals each and a group consisting of 8 animals). One group received 2% glutathione (dissolved in physiological saline, hereafter referred to as GSH group), another group S-(diethyl α,β-carboxyethyl)glutathione sodium (dissolved in physiological saline, hereafter referred to as DCE-EtGS group), and a third group physiological saline (hereafter referred to as control group), all intraperitoneally in a volume of 0.5 ml/100 g body weight once a day for 56 days (100 mg/kg/day as active substance). The lens was examined with a slit lamp under mydriasis with Mydrin-P before the beginning of drug administration and every seven days after initiation of administration. The degree of cataract was scored according to the rating scale of Sasaki et al. (Ophthalmic Res. 15: 185-190, 1983) and the anticataract activity of each drug was tested by time series analysis of variance. Body weights were taken on each observation day. Incidentally, blood glucose levels were determined 5 days after administration of STZ and the study was continued only after confirmation of hyperglycemia.

[2] = tested on: streptozotocin-induced diabetic cataract; experiment: Inhibitory effect on streptozotocin-induced diabetic cataract (slit lamp, rating scale of Sasaki et al.); format: in vivo, male SD rats; settings: for time at which cataract scores were reached compared with control group / degree of progression of cataract, time series analysis of variance vs control group: 100 mg/kg/day intraperitoneally once a day for 56 days; for time at which cataract scores were reached compared with control group: rating scale of Sasaki et al. 0-6; for degree of progression of cataract, time series analysis of variance vs control group: scored every seven days; for vacuolation rate (of the eyes): after 7 days, 100 mg/kg/day intraperitoneally once a day, STZ 70 mg/kg i.v. rats, control group 45%
Method: Streptozotocin (hereafter abbreviated as STZ), 70 mg/kg, was administered intravenously to 28 male SD rats aged 4 weeks to induce diabetes. Thereafter, the animals were divided into three groups (two groups consisting of 10 animals each and a group consisting of 8 animals). […] The lens was examined with a slit lamp under mydriasis with Mydrin-P before the beginning of drug administration and every seven days after initiation of administration. The degree of cataract was scored according to the rating scale of Sasaki et al. (Ophthalmic Res. 15: 185-190, 1983) and the anticataract activity of each drug was tested by time series analysis of variance. Body weights were taken on each observation day. […] Rating scale of Sasaki et al. 0: No abnormality. 1: Vacuoles are present in the equator of the lens. 2: Vacuoles spread toward the anterior pole beneath the cortex of the anterior lens capsule. 3: Vacuole begin to merge. 4: The deep layer of the cortex of the anterior lens capsule is cloudy. 5: The central part of the lens is milk white in color. 6: Virtually the entire lens is milk white in color (mature cataract).

Structure (SMILES)	Body weight gain vs control group [1]	time at which cataract scores were reached compared with control group [2]	degree of progression of cataract, time series analysis of variance vs control group [2]	vacuolation rate (of the eyes) [2] [%]
CCOC(=O)CC(SCC(NC(=O)CCC(N)C(=O)O)C(=O)NCC(=O)O)C(=O)OCC (stereo not drawn) [DCE-EtGS, S-(Diethyl α,β-dicarboxyethyl)glutathione sodium]	significantly greater	scores of 2, 4, 5 and 6 being reached later than in the control group	significant delay of progression	25
N[C@@H](CCC(=O)N[C@@H](CS)C(=O)NCC(=O)O)C(=O)O [GSH, glutathione, reference compound]		scores of 5 and 6 were reached later than in the control group	no significant difference from the control group	56.3
